Biological target: T1, human cloned 5-HT6 receptors (Homo sapiens, UniProt P50406)
T1 construct: expressed in transfected cells; host or cells: Hela cells
Assay: 5-HT6 binding affinity, [3H]-LSD displacement on Hela cell membranes
Details: [3H]-LSD 3.0 nM; membranes of Hela cells expressing human cloned 5-HT6 receptors; 120 min at room temperature
Protocol: The affinity of test compounds for the serotonin 5-HT6 receptor is evaluated in the following manner. Cultured Hela cells expressing human cloned 5-HT6 receptors are harvested and centrifuged at low speed (1,000×g) for 10.0 min to remove the culture media. The harvested cells are suspended in half volume of fresh physiological phosphate buffered saline solution and recentrifuged at the same speed. This operation is repeated. The collected cells are then homogenized in ten volumes of 50 mM Tris.HCl (pH 7.4) and 0.5 mM EDTA. The homogenate is centrifuged at 40,000×g for 30.0 min and the precipitate is collected. The obtained pellet is resuspended in 10 volumes of Tris.HCl buffer and recentrifuged at the same speed. The final pellet is suspended in a small volume of Tris.HCl buffer and the tissue protein content is determined in aliquots of 10-25 μl volumes. Bovine Serum Albumin is used as the standard in the protein determination according to the method described in Lowry et al., J. Biol. Chem., 193:265 (1951). The volume of the suspended cell membranes is adjusted to give a tissue protein concentration of 1.0 mg/ml of suspension. The prepared membrane suspension (10 times concentrated) is aliquoted in 1.0 ml volumes and stored at −70° C. until used in subsequent binding experiments.
Binding experiments are performed in a 96 well microtiter plate format, in a total volume of 200 μl. […] The test compounds are added in 20.0 μl volume.
The reaction is allowed to proceed in the dark for 120 min at room temperature, at which time, the bound ligand-receptor complex is filtered off on a 96 well unifilter with a Packard Filtermate® 196 Harvester. The bound complex caught on the filter disk is allowed to air dry and the radioactivity is measured in a Packard TopCount® equipped with six photomultiplier detectors, after the addition of 40.0 μl Microscint®-20 scintillant to each shallow well. The unifilter plate is heat-sealed and counted in a PackardTopCount® with a tritium efficiency of 31.0%.
Binding in the presence of varying concentrations of test compound is expressed as a percentage of specific binding in the absence of test compound. The results are plotted as log % bound versus log concentration of test compound. […] A linear regression line of data points is plotted, from which the IC50 value is determined and the Ki value is determined based upon the following equation: Ki=IC50/(1+L/KD) where L is the concentration of the radioactive ligand used and KD is the dissociation constant of the ligand for the receptor, both expressed in nM.

T1 sequence (P50406 whole entry): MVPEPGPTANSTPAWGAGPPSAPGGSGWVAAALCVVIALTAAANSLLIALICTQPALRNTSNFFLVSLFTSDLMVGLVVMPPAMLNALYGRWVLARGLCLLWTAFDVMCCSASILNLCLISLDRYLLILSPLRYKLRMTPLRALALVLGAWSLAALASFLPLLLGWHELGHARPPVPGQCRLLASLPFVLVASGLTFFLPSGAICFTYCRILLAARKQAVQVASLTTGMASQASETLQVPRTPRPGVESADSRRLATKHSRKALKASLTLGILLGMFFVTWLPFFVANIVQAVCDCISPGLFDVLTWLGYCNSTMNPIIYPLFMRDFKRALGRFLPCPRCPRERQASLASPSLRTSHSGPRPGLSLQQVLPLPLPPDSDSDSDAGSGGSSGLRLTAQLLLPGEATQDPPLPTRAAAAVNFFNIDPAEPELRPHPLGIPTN

SMILES	Ki [nM]
CN1CCC(c2cn(S(=O)(=O)c3cc(Cl)c(Cl)s3)c3ccccc23)C1 (stereo not drawn) [Example 12, 1-[(4,5-dichlorothien-2-yl)sulfonyl]-3-(1-methyl-pyrrolidin-3-yl)-1H-indole]	4
COc1ccc(S(=O)(=O)n2cc(C3CCCNC3)c3ccccc32)cc1 (stereo not drawn) [Example 37, 1-(4-methoxy-benzenesulfonyl)-3-piperidin-3-yl-1H-indole]	10
O=S(=O)(c1ccc(F)c(F)c1)n1cc(C2CCCNC2)c2ccccc21 (stereo not drawn) [Example 35, 1-(3,4-difluoro-benzenesulfonyl)-3-piperidin-3-yl-1H-indole]	7
CN1CCC(c2cn(S(=O)(=O)c3ccc(Cl)c(Cl)c3)c3ccccc23)C1 (stereo not drawn) [Example 11, 1-(3,4-dichlorophenylsulfonyl)-3-(1-methylpyrrolidin-3-yl)-1H-indole]	3
O=S(=O)(c1cccc(Cl)c1)n1cc(C2CCCNC2)c2cccnc21 (stereo not drawn) [Example 48, 1-(3-chloro-benzenesulfonyl)-3-piperidin-3-yl-1H-pyrrolo[2,3-b]pyridine]	6
CN1CCC(c2cn(S(=O)(=O)c3ccc(Cl)cc3)c3ccccc23)C1 (stereo not drawn) [Example 6, 1-(4-chlorophenylsulfonyl)-3-(1-methylpyrrolidin-3-yl)-1H-indole]	1
CN1CCC(c2cn(S(=O)(=O)c3ccc(F)cc3)c3ccccc23)C1 (stereo not drawn) [Example 4, 1-(4-fluorophenylsulfonyl)-3-(1-methyl-pyrrolidin-3-yl)-1H-indole]	2
CN1CCC(c2cn(S(=O)(=O)c3ccccc3Br)c3ccccc23)C1 (stereo not drawn) [Example 13, 1-(2-bromophenylsulfonyl)-3-(1-methylpyrrolidin-3-yl)-1H-indole]	1
O=S(=O)(c1cccc(Cl)c1)n1cc(C2CCCNC2)c2ccccc21 (stereo not drawn) [Example 34, 1-(3-chloro-benzenesulfonyl)-3-piperidin-3-yl-1H-indole]	2
COc1ccc(S(=O)(=O)n2cc(C3CCN(C)C3)c3ccccc32)cc1OC (stereo not drawn) [Example 10, 1-(3,4-dimethoxyphenylsulfonyl)-3-(1-methylpyrrolidin-3-yl)-1H-indole]	5
CN1CCC(c2cn(S(=O)(=O)c3ccccc3I)c3ccccc23)C1 (stereo not drawn) [Example 17, 1-(2-iodophenylsulfonyl)-3-(1-methylpyrrolidin-3-yl)-1H-indole]	2
CN1CCC(c2cn(S(=O)(=O)c3ccc(N)cc3)c3ccccc23)C1 (stereo not drawn) [Example 9, 1-(4-aminophenylsulfonyl)-3-(1-methylpyrrolidin-3-yl)-1H-indole]	1
O=S(=O)(c1ccc(Cl)s1)n1cc(C2CCCNC2)c2cccnc21 (stereo not drawn) [Example 47, 1-(5-chloro-thiophene-2-sulfonyl)-3-piperidin-3-yl-1H-pyrrolo[2,3-b]pyridine]	7
O=S(=O)(c1ccc(C(F)(F)F)cc1)n1cc(C2CCCNC2)c2ccccc21 (stereo not drawn) [Example 38, 1-(4-trifluoromethy-benzenesulfonyl)-3-piperidin-3-yl-1H-indole]	10
O=S(=O)(c1ccccc1Br)n1cc(C2CCN(Cc3ccccc3)C2)c2ccccc21 (stereo not drawn) [Example 22, 3-(1-benzylpyrrolidin-3-yl)-1-(2-bromophenylsulfonyl)-1H-indole]	14
O=S(=O)(c1ccc(Cl)c(Cl)c1)n1cc(C2CCN(Cc3ccccc3)C2)c2ccccc21 (stereo not drawn) [Example 21, 3-(1-benzylpyrrolidin-3-yl)-1-(3,4-dichlorophenyl-sulfonyl)-1H-indole]	15
CC(C)c1ccc(S(=O)(=O)n2cc(C3CCCNC3)c3ccccc32)cc1 (stereo not drawn) [Example 32, 1-(4-isopropyl-benzenesulfonyl)-3-piperidin-3-yl-1H-indole]	5
Cc1ccc(S(=O)(=O)n2cc(C3CCCNC3)c3ccccc32)cc1Cl (stereo not drawn) [Example 39, 1-(3-chloro-4-methyl-benzenesulfonyl)-3-piperidin-3-yl-1H-indole]	6
O=S(=O)(c1ccc2ccccc2c1)n1cc(C2CCCNC2)c2ccccc21 (stereo not drawn) [Example 41, 1-(2-naphthylenesulfonyl)-3-piperidin-3-yl-1H-indole]	8
Nc1ccc(S(=O)(=O)n2cc(C3CCN(Cc4ccccc4)C3)c3ccccc32)cc1 (stereo not drawn) [Example 20, 1-(4-aminophenylsulfonyl)-3-(1-benzylpyrrolidin-3-yl)-1H-indole]	1
Cc1nc(N)sc1S(=O)(=O)n1cc(C2CCN(Cc3ccccc3)C2)c2ccccc21 (stereo not drawn) [Example 23, 5-[3-(1-benzylpyrrolidin-3-yl)-indole-1-sulfonyl]-4-methyl-thiazol-2-ylamine]	3
O=S(=O)(c1ccc(Br)s1)n1cc(C2CCN(Cc3ccccc3)C2)c2ccccc21 (stereo not drawn) [Example 24, 3-(1-benzylpyrrolidin-3-yl)-1-[(5-bromothien-2-yl)sulfonyl]-1H-indole]	9
O=S(=O)(c1ccc(Cl)s1)n1cc(C2CCCNC2)c2ccccc21 (stereo not drawn) [Example 33, 1-(5-chloro-thiophene-2-sulfonyl)-3-piperidin-3-yl-1H-indole]	3
O=S(=O)(c1ccccc1)n1cc(C2CCCNC2)c2ccccc21 (stereo not drawn) [Example 31, 1-Benzenesulfonyl-3-piperidin-3-yl-1H-indole]	2
Cc1ccc(S(=O)(=O)n2cc(C3CCN(Cc4ccccc4)C3)c3ccccc32)cc1 (stereo not drawn) [Example 18, 3-(1-benzylpyrrolidin-3-yl)-1-(4-methylphenylsulfonyl)-1H-indole]	8
CN1CCC(c2cn(S(=O)(=O)c3ccc4ccccc4c3)c3ccccc23)C1 (stereo not drawn) [Example 8, 1-(naphth-2-ylsulfonyl)-3-(1-methylpyrrolidin-3-yl)-1H-indole]	3
CN1CCC(c2cn(S(=O)(=O)c3ccc(I)cc3)c3ccccc23)C1 (stereo not drawn) [Example 16, 1-(4-iodophenylsulfonyl)-3-(1-methylpyrrolidin-3-yl)-1H-indole]	1

From patent publication US6903112B2, “Heterocyclylindazole and -azaindazole compounds as 5-hydroxytryptamine-6 ligands” (Wyeth, priority 2000, dated 2005)
